Measurements taken from patent publication EP0783319B1, “MURAMYL PEPTIDE COMPOSITIONS FOR INHIBITING HIV REPLICATION” (VACSYN S.A., priority 1994, dated 1996).

What was measured:
macrophages de cobayes = settings: guinea pig macrophages; cited from earlier work
HIV = settings: in vitro, 1000 µg/ml; cited from earlier work
[1] = design: species or system homme; settings: in vivo
Description: Des composés préférés pour l'utilisation selon l'invention sont le Murabutide (Nac-Mur-L-Ala-DGln OnC4H9) et le Muramétide (Nac-Mur-L-Ala-DGln OMe).

macrophages = experiment: Macrophage proliferation in cultured donor monocytes (3H-thymidine incorporation); type: cell-based, humains; settings: for inhibition de la prolifération des macrophages stimulées par la combinaison IL-3/GM-CSF / inhibition de la prolifération des macrophages stimulées par l'IL-3: 1 µg/ml, compound added one day before 3H-thymidine, 5-day culture; for inhibition de la prolifération des macrophages stimulées par la combinaison IL-3/GM-CSF: rh IL-3 + rh GM-CSF stimulated; for inhibition de la prolifération des macrophages stimulées par l'IL-3: rh IL-3 stimulated; for inhibition de la prolifération spontanée: no stimulation
Description: Pour cela, des monocytes prélevés chez un donneur sont mis en culture pendant 5 jours soit a) sans stimulation (afin d'évaluer leur niveau de prolifération spontanée) soit b) en présence d'interleukine 3 recombinante humaine (rh IL-3) soit c) en présence et de rh IL-3 et de rh GM-CSF "granulocyte-macrophage colony stimulating factor" recombinant humain. […] Les composés de l'invention sont ajoutés au milieu de culture un jour avant l'addition de thymidine tritiée (^3H-thymidine). Les cellules en voie de division incorporent cette thymidine. Les cellules (qui se sont différenciées en macrophages pendant la durée de la culture) sont recueillies et lavées, et on évalue le niveau de prolifération en mesurant dans un compteur beta, la quantité de ^3H incorporée suivant des méthodes classiques telles que décrites dans Blood, Vol. 76, pages 1490-1493, 1990.

VIH (HTLV III Ba-L) = experiment: HIV replication in primary human monocyte cultures (viral protein P24 in supernatants, day 7); type: cell-based; settings: P24 at day 7
Description: L'exemple 2 démontre l'effet du Murabutide et du Muramétide sur le niveau de réplication du VIH dans des cultures primaires de monocytes humains prélevés sur des volontaires sains. Des cultures monocytaires ont été infectées au jour 0 par une source VIH (HTLV III Ba-L) qui présente un tropisme pour les monocytes. Certaines cultures furent traitées par différentes concentrations des composés soit 1 jour avant, soit le même jour, soit 1 jour après l'inoculation par le VIH. La réplication du virus a été évaluée au jour 7 par la mesure de la quantité de protéine virale P24 dans les surnageants comme décrite dans Blood, Vol.76, page 1490-1493, 1990.

CC(=O)N[C@H]1C(O)O[C@H](CO)[C@@H](O)[C@@H]1O[C@H](C)C(=O)N[C@@H](C)C(=O)N[C@H](CCC(=O)O)C(N)=O (stereo partly drawn) [MDP, N-acétyl-muramyl-L-alanyl-D- Isoglutamine]
inhibition de la prolifération des macrophages (macrophages de cobayes): inhiber la prolifération des macrophages de cobayes | inhibition de la réplication de HIV (HIV): inhiber partiellement la réplication de HIV

CCCCOC(=O)[C@@H](CCC(N)=O)NC(=O)[C@H](C)NC(=O)[C@@H](C)O[C@H]1[C@H](O)[C@@H](CO)OC(O)[C@@H]1NC(C)=O (stereo partly drawn) [Murabutide, Nac-Mur-L-Ala-DGln OnC4H9]
effets secondaires [1]: dénuées d'effets secondaires | tolérance [1]: très bonne tolérance | inhibition de la prolifération des macrophages stimulées par la combinaison IL-3/GM-CSF (macrophages): inhiber la prolifération des macrophages | inhibition de la prolifération des macrophages stimulées par l'IL-3 (macrophages): inhiber la prolifération des macrophages | inhibition de la prolifération spontanée (macrophages; 10 µg/ml): inhibition de la prolifération spontanée a été observé | inhibition de la réplication virale (VIH (HTLV III Ba-L); 10 à 50 µg/ml, treatment on day -1, day 0 or day +1 relative to infection): inhibe complètement la réplication virale

COC(=O)[C@@H](CCC(N)=O)NC(=O)[C@H](C)NC(=O)[C@@H](C)O[C@H]1[C@H](O)[C@@H](CO)OC(O)[C@@H]1NC(C)=O (stereo partly drawn) [Muramétide, Nac-Mur-L-Ala-DGln OMe]
effets secondaires [1]: dénuées d'effets secondaires | tolérance [1]: très bonne tolérance | inhibition de la prolifération des macrophages stimulées par la combinaison IL-3/GM-CSF (macrophages): inhiber la prolifération des macrophages | inhibition de la prolifération des macrophages stimulées par l'IL-3 (macrophages): inhiber la prolifération des macrophages | inhibition de la prolifération spontanée (macrophages; 10 µg/ml): inhibition de la prolifération spontanée a été observé | inhibition de la prolifération spontanée (macrophages; 50 µg/ml): inhibition de la prolifération spontanée a été observé | inhibition at 50 µg/mL (VIH (HTLV III Ba-L); Human immunodeficiency virus 1, BAL, Monocyte, 168 h, 50 µg/ml, whatever the time of treatment (day -1, 0 or +1), read-out: suppression de la réplication virale): 100% | suppression de la réplication virale (VIH (HTLV III Ba-L); different concentrations, treatment day -1, 0 or +1): suppression hautement significative de la réplication virale
